{"source": "patent US20140179664A1", "about": "“Heterocyclyl Pyrimidine Analogues As JAK Inhibitors” (Cellzome Limited, priority 2011, published 2014)", "test_system": "STAT5 phosphorylation downstream of JAK3 in human YT cells", "test": "pSTAT5 cell assay (IL-2 stimulated YT cells, AlphaScreen)", "format": "cell-based", "details": "IL-2 stimulation, read-out: Inhibition values (IC50) pSTAT5", "description": "STAT5 phosphorylation represents one of the proximal events in the signalling cascade downstream of JAK3 activation. Therefore STAT5 phosphorylation is an appropriate readout to assess the mechanistic effect of JAK3 inhibition. Stimulation of human YT cells, an NK-like cell line, with interleukin-2 (IL-2) results in phosphorylation of STAT5 at tyrosine residue 694 (Tyr694) that can be quantitatively measured by immunodetection with specific antibodies and an appropriate detection method, in this case AlphaScreen assay technology.\nHuman YT cells were grown in RPMI medium (Lonza, BE12-167) with 2 mM L-Glutamine (Invitrogen, 25030-024) and 10% heat-inactivated FBS (Invitrogen, 10106-169) and kept in a humidified incubator (37° C., 5% CO2). Cells were harvested by centrifugation, washed once with HBSS (Invitrogen, 14180-046), resuspended in HBSS at 1.5×10^6 cells/ml and 0.9×10^4 cells were seeded in 6 μl per well in a 96 well White plate (PerkinElmer, 6005569).\nTest compounds were dissolved in DMSO and a 1:3 dilution series (9 steps) was prepared. To generate a dose response curve, 3 μl of fourfold concentrated compound in 4% DMSO/HBSS were added to each cell sample in the 96 well plate resulting in a final DMSO concentration of 1% DMSO. Cells were incubated for one hour in a humidified incubator (37° C., 5% CO2). To each well 3 μl of a fourfold concentrated IL-2 solution (Recombinant human IL-2, Peprotech 200-02; 120 nM solution in HBSS) was added and incubated for 30 minutes at room temperature. Cells were lysed by adding 3 μl of 5× lysis buffer (SureFire lysis buffer; Perkin Elmer, TGRS5S10K) and incubated for 10 minutes at room temperature with gentle shaking\nFor signal detection by AlphaScreen® technology the SureFire phospho-STAT5 (Tyr694/Tyr699) kit was used according to instructions provided by the manufacturer (Perkin Elmer, TGRS5S10K). Acceptor beads were added as recommended by the manufacturer (Reactivation buffer/Activation buffer/Acceptor beads at a ratio of 40:10:1) and incubated at room temperature for 1.5 hours with gentle shaking Then donor beads were added as recommended (Dilution buffer/Donor beads at a ratio of 20:1) and incubated at room temperature for 1.5 hours with gentle shaking Plates were read on an Envision instrument (Perkin Elmer) with the AlphaScreen protocol. Data were analysed in BioAssay using the nonlinear regression for a sigmoidal dose-response with a variable slope.", "note": "pIC50: −log10 of the molar value.", "data": [{"smiles": "Cn1cc(Nc2ncc(Cl)c(N[C@H](CO)c3ccccc3)n2)cn1", "note": "[Compound 4]", "values": [{"measurement": "pIC50", "result": "6.00 to 6.60"}]}, {"smiles": "OCCn1cc(Nc2ncc(Cl)c(N[C@H](CO)c3ccccc3)n2)cn1", "note": "[Compound 9]", "values": [{"measurement": "pIC50", "result": "6.00 to 6.60"}]}, {"smiles": "OC[C@@H](Nc1nc(Nc2cnn(CC(F)F)c2)ncc1Cl)c1ccccc1F", "note": "[Compound 165]", "values": [{"measurement": "pIC50", "result": "> 6.60"}]}]}
